tested on: T1, TpdE; test: NADPH oxidation at […] nm, Michaelis-Menten fit; assay type: biochemical, Rhodococcus jostii; conditions: 0.2 mM NADPH, 50 mM phosphate pH 7.2, 30 °C; apparent
T1 construct: C-terminal His6 tag, pET-tpdE in E. coli BL21 (DE3), Ni-chelating column, ~30 kDa on SDS-PAGE; residues T15, G16, G20, G22, N119, S148, Y161, K165

In order of rising Km:
1. CCCC(=O)OC(C)C(C)=O (stereo not drawn) [Butan-3-one-2-yl-butanoate]  0.76 ± 0.1 mM
2. CCC(=O)C(C)=O [2,3-Pentanedione]  0.98 ± 0.2 mM
3. CC(=O)C(C)=O [Diacetyl]  1.9 ± 0.3 mM
4. CCCC(=O)C(C)=O [2,3-Hexanedione]  2.2 ± 0.4 mM
5. CCC(=O)C(=O)CC [3,4-Hexanedione]  3.3 ± 0.6 mM
6. CC(=O)C(C)O (stereo not drawn) [Acetoin]  5 ± 0.3 mM
7. CCCCC(=O)C(C)=O [2,3-Heptanedione]  6.9 ± 0.9 mM
8. CC(=O)C(C)S (stereo not drawn) [3-Mercapto-2-butanone]  14.4 ± 4.8 mM
9. CC(=O)C(C)(C)O [3-Hydroxy-3-methyl-2-butanone]  14.6 ± 4 mM

Reference: PMC4647570, “Ketoreductase TpdE from Rhodococcus jostii TMP1: characterization and application in the synthesis of chiral alcohols” (PeerJ, 2015)
